Assay [1] deals with PBMCs. The assay can be described thus: LPS-induced TNFα/IL-8 release in PBMC cells, assay (b). Format: cell-based. The settings on record: Homo sapiens, LPS-stimulated PBMCs, read-out: IC50 Values for Inhibition of Cytokine Release, PBMCs IL-8. How it is done: Peripheral blood mononuclear cells (PBMCs) from healthy subjects are separated from whole blood using a density gradient (Lymphoprep, Axis-Shield Healthcare). The PBMCs are seeded in 96 well plates and treated with compounds at the desired concentration for 2 hours before addition of 1 ng/mL LPS (Escherichia Coli 0111:B4 from Sigma Aldrich) for 24 hours under normal tissue culture conditions (37° C., 5% CO2). The supernatant is harvested for determination of IL-8 and TNFα concentrations by sandwich ELISA (Duo-set, R&D systems) and read on the fluorescence microplate reader (Varioskan® Flash, ThermoFisher Scientific).

The target in the next assay is GSK3α (Homo sapiens (Human), UniProt P49840). Description: GSK 3α enzyme inhibition (FRET, Z-LYTE), Method 2. It counts as biochemical. How it is done: (§1) The enzyme inhibitory activities of compounds disclosed herein are determined by FRET using synthetic peptides labelled with both donor and acceptor fluorophores (Z-LYTE, Invitrogen Ltd., Paisley, UK).
The inhibitory activities of compounds of the invention against the GSK 3α enzyme isoform (Invitrogen), are evaluated by determining the level of activation/phosphorylation of the target peptide. The GSK3-α protein (500 ng/mL, 2.5 μL) is mixed with the test compound (2.5 μL at either 4 μg/mL, 0.4 μg/mL, 0.04 μg/mL, or 0.004 μg/mL) for 2 hr at RT. The FRET peptide (8 μM, 2.5 μL), which is a phosphorylation target for GSK3α, and ATP (40 μM, 2.5 μL) are then added to the enzyme/compound mixture and the resulting mixture incubated for 1 hr. Development reagent (protease, 5 μL) is added for 1 hr prior to detection in a fluorescence microplate reader (Varioskan® Flash, ThermoFisher Scientific).
(§2) In all cases, the site-specific protease cleaves non-phosphorylated peptide only and eliminates the FRET signal. Phosphorylation levels of each reaction are calculated using the ratio of coumarin emission (donor) over fluorescein emission (acceptor), for which high ratios indicate high phosphorylation and low ratios indicate low phosphorylation levels.
This method follows the same steps as Method 1 above, but utilises a shorter period of mixing of the test compound (105 minutes instead of 2 hours) with the GSK3-α protein.

Another assay relates to d-U937 cells. Description: Accumulation of β catenin in d-U937 cells, assay (m). It counts as cell-based, human. How it is done: U937 cells, a human monocytic cell line, are differentiated into macrophage-type cells by incubation with PMA; (100 ng/mL) for between 48 to 72 hr. The cells are then incubated with either final concentrations of test compound or vehicle for 18 hr. The induction of β-catenin by the test compounds is stopped by replacing the media with 4% formaldehyde solution. Endogenous peroxide activity is neutralised by incubating with quenching buffer (100 μL, 0.1% sodium azide, 1% H2O2 in PBS with 0.05% Tween-20) for 20 min. The cells are washed with washing buffer (200 μL; PBS containing 0.05% Tween-20) and incubated with blocking solution (200 μL; 5% milk in PBS) for 1 hr, re-washed with washing buffer (200 μL) and then incubated overnight with anti-β-catenin antibody solution (50 μL) in 1% BSA/PBS (BD, Oxford, UK).
After washing with washing buffer (3×200 μL; PBS containing 0.05% Tween-20), cells are incubated with an HRP-conjugated secondary antibody solution (100 μL) in 1% BSA/PBS (Dako, Cambridge, UK) and the resultant signal is determined colourimetrically (OD: 450 nm with a reference wavelength of 655 nm) using TMB substrate (50 μL; R&D Systems, Abingdon, UK). This reaction is stopped by addition of 1N H2SO4 solution (50 μL). Cells are then washed with washing buffer and 2% crystal violet solution (50 μL) is applied for 30 min. After washing with washing buffer (3×200 μL), 1% SDS (100 μL) is added to each well and the plates are shaken lightly for 1 hr prior to measuring the absorbance at 595 nm (Varioskan® Flash, Thermo-Fisher Scientific).
The measured OD450-655 readings are corrected for cell number by dividing the OD450-655 by the OD595 readings. The percentage induction for each well is calculated relative to vehicle, and the ratio of induction normalised in comparison with the induction produced by a standard control comprising of N-(4-(4-(3-(3-tert-butyl-1-p-tolyl-1H-pyrazol-5-yl)ureido)naphthalen-1-yloxy)pyridin-2-yl)-2-methoxyacetamide (1 μg/mL) which is defined as 100%.

For assay [2], the system named is PBMCs. The assay can be described thus: IL-2 and IFN gamma release in CD3/CD28 stimulated PBMC cells, assay (c). The settings on record: Homo sapiens. Format: cell-based. How it is done: PBMCs from healthy subjects are separated from whole blood using a density gradient (Lymphoprep, Axis-Shield Healthcare). Cells are added to a 96 well plate pre-coated with a mixture of CD3/CD28 monoclonal antibodies (0.3 μg/mL eBioscience and 3 μg/mL BD Pharmingen respectively). Compound at the desired concentration is then added to the wells and the plate left for 3 days under normal tissue culture conditions. Supernatants are harvested and IL-2 and IFN gamma release determined by Sandwich ELISA (Duo-set, R&D System). The IC50 is determined from the dose response curve.

The target of another assay is p38 MAPKα (Homo sapiens (Human), UniProt Q16539). The assay can be described thus: p38 MAPKα enzyme inhibition (FRET, Z-LYTE), Method 2. Format: biochemical.
Another assay deals with c-Src (Homo sapiens (Human), UniProt P12931). The assay can be described thus: c-Src enzyme inhibition (FRET, Z-LYTE). Format: biochemical. On the procedure: as §1
(§3) The relevant enzyme (3000 ng/mL or 2000 ng/mL respectively, 2.5 μL) is incubated with the test compound (either 4 μg/mL, 0.4 μg/mL, 0.04 μg/mL, or 0.004 μg/mL, 2.5 μL each) for 2 hr at RT. The FRET peptides (8 μM, 2.5 μL), and appropriate ATP solutions (2.5 μL, 800 μM for c-Src, and 60 μM ATP for Syk) are then added to the enzymes/compound mixtures and incubated for 1 hr. Development reagent (protease, 5 μL) is added for 1 hr prior to detection in a fluorescence microplate reader (Varioskan® Flash, ThermoFisher Scientific).
as §2

For a further assay, the target named is Syk (Homo sapiens (Human), UniProt P43405). The assay can be described thus: Syk enzyme inhibition (FRET, Z-LYTE). It counts as biochemical. On the procedure:
as §1
as §3, with “The inhibitory activities of compounds of the invention against c-Src and Syk enzymes (Invitrogen), are evaluated in a similar fashion to that described hereinabove. The relevant” for “The relevant”
as §2

[3] abbreviates: 1 μg/mL test compound, normalised to reference N-(4-(4-(3-(3-tert-butyl-1-p-tolyl-1H-pyrazol-5-yl)ureido)naphthalen-1-yloxy)pyridin-2-yl)-2-methoxyacetamide.
The mark [4] stands for this setting: 5 μg/mL test compound, normalised to the same reference compound.
Where [5] appears, read: 10 μg/mL test compound, normalised to the same reference compound.
The mark [6] stands for this setting: IFNγ, read-out: IC50 Values for Inhibition of Cytokine Release, PBMCs IFNγ.

Each structure is given as a SMILES string.

The values that follow come from patent US9771353B2, “Kinase inhibitors based upon N-alkyl pyrazoles” (RESPIVERT LIMITED, priority 2013, dated 2017).

Sequence of p38 MAPKα (Q16539 whole entry): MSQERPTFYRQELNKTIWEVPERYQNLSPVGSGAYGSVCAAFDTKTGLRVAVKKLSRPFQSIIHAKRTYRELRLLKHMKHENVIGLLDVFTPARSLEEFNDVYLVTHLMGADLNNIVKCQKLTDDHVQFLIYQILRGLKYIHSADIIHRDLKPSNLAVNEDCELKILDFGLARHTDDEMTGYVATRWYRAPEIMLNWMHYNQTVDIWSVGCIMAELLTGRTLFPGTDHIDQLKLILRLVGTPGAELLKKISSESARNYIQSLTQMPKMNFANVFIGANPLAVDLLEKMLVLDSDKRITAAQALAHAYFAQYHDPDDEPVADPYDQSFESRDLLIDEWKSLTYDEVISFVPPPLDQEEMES
Sequence of GSK3α (P49840 whole entry, canonical isoform): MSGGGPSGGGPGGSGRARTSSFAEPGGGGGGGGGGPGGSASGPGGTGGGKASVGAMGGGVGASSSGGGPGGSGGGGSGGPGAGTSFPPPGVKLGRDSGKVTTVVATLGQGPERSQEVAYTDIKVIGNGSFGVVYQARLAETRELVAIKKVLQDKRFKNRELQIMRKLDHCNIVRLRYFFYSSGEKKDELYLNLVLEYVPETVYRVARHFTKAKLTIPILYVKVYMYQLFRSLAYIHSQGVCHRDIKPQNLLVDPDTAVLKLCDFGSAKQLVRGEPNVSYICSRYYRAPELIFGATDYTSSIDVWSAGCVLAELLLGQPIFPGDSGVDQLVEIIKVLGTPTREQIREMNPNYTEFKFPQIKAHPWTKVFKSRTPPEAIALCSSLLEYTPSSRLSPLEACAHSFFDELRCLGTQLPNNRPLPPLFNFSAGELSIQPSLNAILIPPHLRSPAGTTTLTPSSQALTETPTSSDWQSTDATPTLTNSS
Sequence of c-Src (P12931 whole entry, looked up): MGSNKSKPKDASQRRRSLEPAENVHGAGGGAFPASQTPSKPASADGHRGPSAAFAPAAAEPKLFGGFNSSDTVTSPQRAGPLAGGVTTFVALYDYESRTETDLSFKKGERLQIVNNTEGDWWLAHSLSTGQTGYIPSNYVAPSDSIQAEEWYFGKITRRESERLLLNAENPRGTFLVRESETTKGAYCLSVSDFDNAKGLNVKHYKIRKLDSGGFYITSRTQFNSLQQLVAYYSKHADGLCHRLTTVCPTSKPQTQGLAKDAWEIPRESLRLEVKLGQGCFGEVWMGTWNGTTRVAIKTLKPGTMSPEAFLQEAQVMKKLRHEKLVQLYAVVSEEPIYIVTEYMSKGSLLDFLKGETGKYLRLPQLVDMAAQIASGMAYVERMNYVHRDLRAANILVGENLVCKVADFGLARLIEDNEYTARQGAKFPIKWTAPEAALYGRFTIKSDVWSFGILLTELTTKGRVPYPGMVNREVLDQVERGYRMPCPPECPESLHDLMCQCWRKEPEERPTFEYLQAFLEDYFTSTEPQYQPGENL

One may read the IC50 as the midpoint of a concentration-inhibition curve. Turning to `C#Cc1cc(Nc2nccc(Oc3ccc(NC(=O)Nc4cc(C(C)(C)C)nn4C(C)C)c4ccccc34)n2)cc(C(=O)NCCOCCOCCOC)c1` [13(a), 3-((4-((4-(3-(3-(tert-Butyl)-1-isopropyl-1H-pyrazol-5-yl)ureido)naphthalen-1-yl)oxy)pyrimidin-2-yl)amino)-5-ethynyl-N-(2-(2-(2-methoxyethoxy)ethoxy)ethyl)-benzamide], the IC50 stood at 5.4 nM with PBMCs [1] and 8610 nM on GSK3α.

Regarding `C#Cc1cc(Nc2nccc(Oc3ccc(NC(=O)Nc4cc(C(C)(C)C)nn4CCC)c4ccccc34)n2)cc(C(=O)NCCOCCOCCOC)c1` [13(b), 3-((4-((4-(3-(3-(tert-Butyl)-1-propyl-1H-pyrazol-5-yl)ureido)naphthalen-1-yl)oxy)-pyrimidin-2-yl)amino)-5-ethynyl-N-(2-(2-(2-methoxyethoxy)ethoxy)ethyl)benzamide], the IC50 stood at 9.3 nM in the assay with PBMCs [1] and 13100 nM against GSK3α.

On to `COc1cc(Nc2nccc(Oc3ccc(NC(=O)Nc4cc(C(C)(C)C)nn4C)c4ccccc34)n2)cc(S(=O)(=O)C2CC2)c1` [Example 3, 1-(3-(tert-Butyl)-1-methyl-1H-pyrazol-5-yl)-3-(4-((2-((3-(cyclopropylsulfonyl)-5-methoxy-phenyl)amino)pyrimidin-4-yl)oxy)naphthalen-1-yl)urea], for which the “% β-catenin induction” value in the assay on d-U937 cells (setting [3]) is given as −1%; in the assay on d-U937 cells (setting [4]), 25%; in the assay with d-U937 cells (setting [5]) it was 27%. The half-maximal inhibitory concentration (IC50) worked out at 22 nM in the assay with PBMCs [2] (setting [6]), 7.2 nM in the assay with PBMCs [1], 1940 nM on GSK3α and 36 nM against p38 MAPKα.

With `C#Cc1cc(Nc2nccc(Oc3ccc(NC(=O)Nc4cc(C(C)(C)C)nn4C)c4ccccc34)n2)cc(C(=O)NCCOCCOC)c1` [Example 4, 3-((4-((4-(3-(3-(tert-Butyl)-1-methyl-1H-pyrazol-5-yl)ureido)naphthalen-1-yl)oxy)pyrimidin-2-yl)amino)-5-ethynyl-N-(2-(2-methoxyethoxy)ethyl)], the IC50 in the assay on PBMCs [1] is 4.7 nM; against GSK3α, 1010 nM.

Turning to `COCCOCCOCCOc1cc(Nc2cc(Oc3ccc(NC(=O)Nc4cc(C(C)(C)C)nn4C)c4ccccc34)ccn2)cc(OC)c1` [Example 5, 1-(3-(tert-Butyl)-1-methyl-1H-pyrazol-5-yl)-3-(4-((2-((3-methoxy-5-(2-(2-(2-methoxy-ethoxy)ethoxy)ethoxy)phenyl)amino)pyridin-4-yl)oxy)naphthalen-1-yl)], the “% β-catenin induction” value was −5.5% in the assay with d-U937 cells (setting [3]), −7% in the assay with d-U937 cells (setting [4]) and −2% in the assay on d-U937 cells (setting [5]). Besides, the half-inhibitory concentration (IC50) against c-Src is 10 nM; with PBMCs [2] (setting [6]) it was 13.3 nM; with PBMCs [2] (IL-2, read-out: IC50 Values for Inhibition of Cytokine Release, PBMCs IL-2), 33.8 nM; against Syk, > 1000 nM; with PBMCs [1], 2.8 nM; on GSK3α, 7490 nM. This compound came in with an IC50 against p38 MAPKα of 160 nM.

Take `COCCOCCOCCOCCOCCOCCOCCOc1cc(Nc2nccc(Oc3ccc(NC(=O)Nc4cc(C(C)(C)C)nn4C)c4ccccc34)n2)cc(OC)c1` [Example 6, 1-(4-((2-((3-(2,5,8,11,14,17,20-Heptaoxadocosan-22-yloxy)-5-methoxyphenyl)amino)-pyrimidin-4-yl)oxy)naphthalen-1-yl)-3-(3-(tert-butyl)-1-methyl-1H-pyrazol-5-yl)urea]: the IC50 in the assay with PBMCs [1] came out at 10.7 nM; against GSK3α it was 1230 nM.

In the case of `C#Cc1cc(Nc2nccc(Oc3ccc(NC(=O)Nc4cc(C(C)(C)C)nn4C(C)(C)C)c4ccccc34)n2)cc(C(=O)NCCOCCOCCOC)c1` [Example 12, 3-((4-((4-(3-(1,3-Di-tert-butyl-1H-pyrazol-5-yl)ureido)naphthalen-1-yl)oxy)pyrimidin-2-yl)amino)-5-ethynyl-N-(2-(2-(2-methoxyethoxy)ethoxy)ethyl)benzamide], the IC50 was 546 nM with PBMCs [1] and 13100 nM at GSK3α.

`C#Cc1cc(Nc2nccc(Oc3ccc(NC(=O)Nc4cc(C(C)(C)C)nn4-c4ccc(C)cc4)c4ccccc34)n2)cc(C(=O)NCCN2CCOCC2)c1` [Reference Compound A, 3-((4-((4-(3-(3-(tert-Butyl)-1-(p-tolyl)-1H-pyrazol-5-yl)ureido)naphthalen-1-yl)oxy)-pyrimidin-2-yl)amino)-5-ethynyl-N-(2-morpholinoethyl)benzamide, reference compound] showed a half-inhibitory concentration (IC50) against p38 MAPKα of 54 nM.

`COCCOCCOCCOc1cc(Nc2nccc(Oc3ccc(NC(=O)Nc4cc(C(C)(C)C)nn4-c4ccc(C)cc4)c4ccccc34)n2)cc(OC)c1` [Reference Compound B, 1-(3-(tert-Butyl)-1-(p-tolyl)-1H-pyrazol-5-yl)-3-(4-((2-((3-methoxy-5-(2-(2-(2-methoxy-ethoxy)ethoxy)ethoxy)phenyl)amino)pyrimidin-4-yl)oxy)naphthalen-1-yl)urea, reference compound] registered an IC50 on p38 MAPKα of 139 nM.
